This is an account of results in patent publication US20220089646A1 (THE UNIVERSITY OF QUEENSLAND, priority 2019, published 2022).

*1 amine or outer side, *2 acyl side, *3 side chain or, on linkers, in order; H or OH if unused. Where a SMILES comes first, the peptide text is derived from it. Bridges are numbered along the chain shown (N, C = ends). [ ]: non-standard residue; d: D form. NHCH2CMe2S = CC(C)(CN[*:1])S[*:2]

One assay concerns the target DOP (Homo sapiens, UniProt P41143). The experiment in a line: Inhibition of Forskolin-induced cAMP production in HEK-DOP cells (AlphaScreen, DP series). The assay is classed as cell-based. The conditions noted are these: for IC50: Forskolin 50 μM/well, 95% CI in brackets; for IC80: approximate IC80, 'EC anything' protocol. Here is the method: DP-7-11 and DP-7-12 were assessed for the ability to inhibit cAMP production in HEK-DOP and HEK KOP cells.
The HEK-293 DOP (HEK-DOP) and HEK-293 KOP (HEK-KOP) cell lines were cultured in a T75 flask, in Dulbeco's Modified Eagle's Medium (DMEM) complete with 10% (v/v) fetal bovine serum (FBS) and 1% (v/v) Geneticin. Cells were incubated in a humidified atmosphere of 37° C. (95% air and 5% CO2). Cells were passaged at 80-90% confluence and media was changed every two days.
Stimulation buffer and Lysis buffer were prepared fresh on the day of each assay. Stimulation buffer contained 19.5 mL Hanks buffered saline solution, Bovine serum albumin (BSA) 0.1% (w/v), 0.5 mM 3-Isobutyl-1-methylxanthine (IBMX) and 5 mM HEPES (4-(2-hydroxyethyl)-1-piperazineethanesulfonic acid). Lysis buffer contained 19 mL Mili-Q H2O, BSA 0.1% (w/v), 0.3% (v/v) 10% Tween-20, and 5 mM HEPES. Both buffers were adjusted to pH 7.4 with NaOH.
The cAMP standard dilution series was prepared from the 50 μM cAMP standard solution provided by the cAMP assay kit. The standard solution was vortexed before being serially diluted to provide a concentration range of 5×10^−6 M to 5×10^−11 M in ½ Log intervals.
For this assay, Forskolin was optimised at 50 μM/well. 25 mM stocks were used to prepare 0.2 mM Forskolin. The concentration of Forskolin prepared was 4 times the required concentration in the well to account for further dilution in the well. 0.1 mM Forskolin solution was then made from this and used to dilute the peptide solutions.
DP-7-11 and DP-7-12 provided in powder form and reconstituted to 10 mM stock solutions and diluted to 1 mM working stocks using Mili-Q H2O. Each peptide solution was serially diluted to give concentrations of 1×10^−6 to 3×10^−7 M with stimulation buffer.
Stimulation buffer was added to the 0.2 mM Forskolin solution in a 1:1 ratio to prepare the Forskolin only treatment solution. This was the positive control. Stimulation buffer was used as the negative control.
Cells were harvested from two T75 flasks on the day of experimentation. Identical protocol was used for both DOP and KOP cells. The cells were first removed from the incubator and washed with Versene®. The cells were then incubated in 2 mL of Versene® at 37° C. for 5 minutes. Following this, the mixture was made up to 5 mL with Versene® in a centrifuge tube. This was centrifuged at 1300 rpm for 2 minutes at 23° C. The supernatant was then decanted and the cells resuspended in 100 μL stimulation buffer for counting. A hemocytometer was used to count the cells. This assay required the concentration of cells to be 13300 cells/μL
This method was used to conduct all cAMP Alphascreen assays. The acceptor bead mixture consisted of acceptor beads and stimulation buffer mixed according to the ratio 1:35 given in the kit. From this, the acceptor beads mixture was used to prepare separate mixtures for the cAMP standard curve and for the treatment wells of the assay. For the treatment wells, the beads were mixed with cells in a 1:1 ratio. For the cAMP standard curve, the beads were mixed with more stimulation buffer in a 1:1 ratio. The donor bead mixture consisted of donor beads, biotinylated cAMP and lysis buffer mixed in the ratio 1:3:300.
The DP series compounds were assayed as follows: The assay was performed using a 96 well ½ area plate. The different cAMP standard solutions (3 μL/well) were plated in duplicate. The different concentrations of drug (3 μL/well), and control solutions (3 μL/well) were plated in triplicate. Following this, the acceptor bead mixture (3 μL/well) was added to the respective sets—either cAMP standard curve or the treatment. This was covered and incubated on the orbital shaker for 30 minutes at room temperature. Then, the donor bead mixture (10 μL/well) was added to each well. This was incubated at room temperature overnight on the orbital shaker. […]
On the technique in general: Cyclic AMP is a second messenger, typically raised through Gs and lowered through Gi signalling.

The target of a further assay is KOP (Homo sapiens, UniProt P41145). The experiment in a line: cAMP assay with naloxone in HEK-KOP cells. Type of assay: cell-based. The conditions noted are these: naloxone 100 μM/well; for Mean cAMP response (FIG. 14): HEK-KOP, naloxone assay, peptide at approximate IC80; for Naloxone reversal of cAMP inhibition through KOP: p<0.01. The procedure: The preparation of buffers, cAMP standard curve, bead solutions were carried out identically to the agonist assay.
Forskolin had been optimised at 50 μM/well. Thus, the 25 mM stocks were used to prepare 300 μL of 0.3 mM Forskolin. The concentration of Forskolin prepared was 6 times the required concentration in the well to account for further dilution in the well. Forskolin solution was then made from this and used to dilute the drug solutions.
Approximate IC80 values were used for DP-7-11 and DP-7-12 to determine the ability of naloxone to reverse agonist inhibitory effect.
The desired concentration of naloxone was 100 μM/well. Thus, 100 μL of 600 μM naloxone was made up from 100 mM stock. This was 6 times the desired in-well concentration to account for further dilution in the well by Forskolin, peptide, cells and acceptor bead solutions.
Stimulation buffer was added to the 0.3 mM Forskolin solution to prepare the Forskolin only treatment solution as the positive control. Stimulation buffer used as the negative control.
The DP series compounds were assayed as follows: The different cAMP standard solutions (3 μL/well) were plated in duplicate. Naloxone solution was then plated (1 μL/well) for each treatment (DP-7-11, DP-7-12, Forskolin only and stimulation buffer) in triplicate. In the same way, stimulation buffer was plated (1 μL/well) for the same number of wells. This made up two sets of wells, antagonist and non-antagonist. Following this, the acceptor bead and cell mixture (3 μL/well) was added to the treatment wells. The plates were then covered and centrifuged at 280 g for 30 seconds before incubation on an orbital shaker for 30 minutes at room temperature. The acceptor bead mixture (3 μL/well) was then added to the cAMP standard curve wells, whilst the drug mixed with Forskolin solutions (3 μL/well) were added to the respective treatment wells in triplicate. Again, the plates were centrifuged at 280 g for 30 seconds, then covered and incubated on the orbital shaker for another 30 minutes. Finally, the donor bead mixture (10 μL/well) was added to each well. This was incubated at room temperature overnight on the orbital shaker.
The Ensight® Multimode Plate Reader was used to quantify the fluorescence units of each plate. Before reading, each plate was centrifuged at 280 g for 30 seconds. Using GraphPad Prism7® Software, cAMP concentrations were determined from the fluorescence data by fit spline/LOWESS analysis. The cAMP standard curve was used for interpolation at this point. The cAMP concentrations were then normalized to the highest cAMP concentration recorded and analyzed by one-way ANOVA for multiple comparisons. This analysis was corrected for multiple comparisons using Bonferroni. […]

[1] abbreviates: concentration-response curve, % cAMP.

Sequence of DOP (P41143 whole entry): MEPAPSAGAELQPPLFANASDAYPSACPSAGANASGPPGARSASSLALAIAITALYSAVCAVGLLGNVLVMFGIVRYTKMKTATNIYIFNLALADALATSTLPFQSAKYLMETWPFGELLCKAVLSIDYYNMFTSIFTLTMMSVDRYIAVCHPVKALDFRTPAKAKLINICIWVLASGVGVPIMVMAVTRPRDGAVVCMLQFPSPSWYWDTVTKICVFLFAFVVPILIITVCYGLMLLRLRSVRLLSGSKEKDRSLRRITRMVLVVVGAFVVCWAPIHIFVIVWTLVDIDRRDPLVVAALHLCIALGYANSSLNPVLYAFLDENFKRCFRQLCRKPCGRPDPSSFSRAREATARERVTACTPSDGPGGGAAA
Sequence of KOP (P41145 whole entry): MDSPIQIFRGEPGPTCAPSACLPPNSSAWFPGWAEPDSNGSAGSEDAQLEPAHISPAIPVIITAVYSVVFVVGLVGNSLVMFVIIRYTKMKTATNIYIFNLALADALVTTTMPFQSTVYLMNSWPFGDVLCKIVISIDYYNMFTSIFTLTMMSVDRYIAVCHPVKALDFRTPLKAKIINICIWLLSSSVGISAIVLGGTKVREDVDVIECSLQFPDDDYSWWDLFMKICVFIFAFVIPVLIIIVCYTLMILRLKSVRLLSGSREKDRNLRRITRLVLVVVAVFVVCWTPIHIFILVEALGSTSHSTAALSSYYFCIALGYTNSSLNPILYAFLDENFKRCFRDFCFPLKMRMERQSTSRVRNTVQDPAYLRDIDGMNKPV

One may read the IC50 as the concentration that gives 50% inhibition. Low values mean inhibition by little substance, high ones a need for much substance. One may read the IC80 as the point of the concentration-response curve where the effect stands at 80%. Higher therefore signals a need for much substance. On to `CC1(C)CNC(=O)C[C@@H](NC(=O)[C@@H](N)Cc2ccc(O)cc2)C(=O)NCC(=O)N[C@@H](Cc2ccccc2)C(=O)N[C@H](C(=O)N[C@@H](CCCNC(=N)N)C(=O)N[C@@H](CCCNC(=N)N)C(N)=O)CSS1` [DP-7-12, c(Tyr-D(Asp)-Gly-Phe-SSa-Arg-Arg)] (H-Y[dD]GFCRR-NH2; linker 2-5 via NHCH2CMe2S), for which, on DOP, the half-inhibitory concentration (IC50) stood at 0.608 nM and it took 2.72 nM to reach the 80% level (IC80). The “Potency at DOP relative to KOP” value on DOP (cAMP IC50 DOP vs KOP) is on record as “ten times”. For the same compound, the “Maximum cAMP response, HEK-DOP” value on DOP (setting [1]) was found to be 14.03%. Also, on KOP, the “Mean cAMP response (FIG. 14)” value was found to be 52.40% and the “Naloxone reversal of cAMP inhibition through KOP” value was “reversed by naloxone”.

At DOP, `CC1(C)CNC(=O)C[C@H](C(=O)N[C@@H](CCCNC(=N)N)C(=O)N[C@@H](CCCNC(=N)N)C(N)=O)NC(=O)[C@H](Cc2ccccc2)NC(=O)CNC(=O)[C@@H](NC(=O)[C@@H](N)Cc2ccc(O)cc2)CSS1` [DP-7-11, c(Tyr-SSa-Gly-Phe-D(Asp)-Arg-Arg)] registered a concentration for half-maximal inhibition (IC50) of 1.83 nM and an IC80 of 24.1 nM. On DOP (setting [1]), the “Maximum cAMP response, HEK-DOP” value is 93.79% and the “Minimum cAMP response, HEK-DOP” value stood at 23.13%. In addition, at KOP, the “Mean cAMP response (FIG. 14)” value was 56.14% and the “Naloxone reversal of cAMP inhibition through KOP” value was “reversed by naloxone”.
